This assay deals with MV-4-11 cells. Put plainly: Gene expression microarray analysis (Affymetrix PrimeView) and GSEA. Format: cell-based, human. The arrangement: RFU PODN (11730768_x_at) / Fold change /veh PODN (11730768_x_at) / RFU LINC00158 (11744669_a_at) / Fold change /veh LINC00158 (11744669_a_at) / RFU DUSP10 (11751237_a_at) / Fold change /veh DUSP10 (11751237_a_at) / RFU ID3 (11757404_x_at) / Fold change /veh ID3 (11757404_x_at) / RFU PLEKHG5 (11737974_s_at) / Fold change /veh PLEKHG5 (11737974_s_at) / RFU LRRC4B (11730491_at) / Fold change /veh LRRC4B (11730491_at) / RFU GIMAP4 (11747438_a_at) / Fold change /veh GIMAP4 (11747438_a_at) / RFU KRT8 (11758183_x_at) / Fold change /veh KRT8 (11758183_x_at) / RFU CNN1 (11734310_a_at) / Fold change /veh CNN1 (11734310_a_at) / RFU VPS37D (11726825_at) / Fold change /veh VPS37D (11726825_at) / RFU C10orf10 (11716522_x_at) / Fold change /veh C10orf10 (11716522_x_at) / RFU KIR2DL2 /// KIR2DL4 /// KIR2DL5A /// KIR2DL5B /// KIR2DS1 /// KIR2DS2 /// KIR2DS3 /// KIR2DS4 /// KIR3DL3 /// KIR3DL3 /// KIR3DS1 (11738374_at) / Fold change /veh KIR2DL2 /// KIR2DL4 /// KIR2DL5A /// KIR2DL5B /// KIR2DS1 /// KIR2DS2 /// KIR2DS3 /// KIR2DS4 /// KIR3DL3 /// KIR3DL3 /// KIR3DS1 (11738374_at) / RFU C1QL1 (11718748_at) / Fold change /veh C1QL1 (11718748_at) / RFU TMPRSS4 (11747572_a_at) / Fold change /veh TMPRSS4 (11747572_a_at) / RFU HAMP (11756126_x_at) / Fold change /veh HAMP (11756126_x_at) / RFU RNFT2 (11725882_a_at) / Fold change /veh RNFT2 (11725882_a_at) / RFU NR4A2 (11747474_a_at) / Fold change /veh NR4A2 (11747474_a_at) / RFU ABCC12 (11746883_a_at) / Fold change /veh ABCC12 (11746883_a_at) / RFU TMEM136 (11760407_x_at) / Fold change /veh TMEM136 (11760407_x_at) / RFU CLDN22 /// WWC2 (11732394_at) / Fold change /veh CLDN22 /// WWC2 (11732394_at) / RFU HLA-DPB1 (11760878_x_at) / Fold change /veh HLA-DPB1 (11760878_x_at) / RFU SPINT1 (11716480_a_at) / Fold change /veh SPINT1 (11716480_a_at) / RFU GAP43 (11754022_s_at) / Fold change /veh GAP43 (11754022_s_at) / RFU A4GNT (11735810_at) / Fold change /veh A4GNT (11735810_at) / RFU PRB3 (11715151_x_at) / Fold change /veh PRB3 (11715151_x_at) / RFU TUBB4B (11761932_at) / Fold change /veh TUBB4B (11761932_at) / RFU CAPN14 (11732068_a_at) / Fold change /veh CAPN14 (11732068_a_at) / RFU TMCC2 (11721928_a_at) / Fold change /veh TMCC2 (11721928_a_at) / RFU IRGQ (11745062_a_at) / Fold change /veh IRGQ (11745062_a_at) / RFU FAM174B (11720279_a_at) / Fold change /veh FAM174B (11720279_a_at) / RFU TMPRSS4 (11748680_a_at) / Fold change /veh TMPRSS4 (11748680_a_at) / RFU FAM212B (11763350_a_at) / Fold change /veh FAM212B (11763350_a_at) / RFU PLEKHG5 (11743358_a_at) / Fold change /veh PLEKHG5 (11743358_a_at) / RFU ZSCAN30 (11745921_a_at) / Fold change /veh ZSCAN30 (11745921_a_at) / RFU CMKLR1 (11741424_a_at) / Fold change /veh CMKLR1 (11741424_a_at) / RFU LOC101060620 /// MAPK8IP1 (11723275_at) / Fold change /veh LOC101060620 /// MAPK8IP1 (11723275_at) / RFU SPTSSB (11747773_x_at) / Fold change /veh SPTSSB (11747773_x_at) / RFU PRSS12 (11739890_at) / Fold change /veh PRSS12 (11739890_at) / RFU BIN1 (11741810_x_at) / Fold change /veh BIN1 (11741810_x_at) / RFU WNT11 (11732464_a_at) / Fold change /veh WNT11 (11732464_a_at) / RFU C10orf10 (11716521_a_at) / Fold change /veh C10orf10 (11716521_a_at) / RFU C5orf56 (11738089_at) / Fold change /veh C5orf56 (11738089_at) / RFU CYB561 (11721691_x_at) / Fold change /veh CYB561 (11721691_x_at) / RFU ANKRD19P (11752326_a_at) / Fold change /veh ANKRD19P (11752326_a_at) / RFU OR2T12 /// OR2T33 /// OR2T8 (11738714_s_at) / Fold change /veh OR2T12 /// OR2T33 /// OR2T8 (11738714_s_at) / RFU VCAN (11748164_a_at) / Fold change /veh VCAN (11748164_a_at) / RFU JSRP1 (11732532_at) / Fold change /veh JSRP1 (11732532_at) / RFU KRTAP10-11 (11738290_x_at) / Fold change /veh KRTAP10-11 (11738290_x_at) / RFU MYO3A (11730013_a_at) / Fold change /veh MYO3A (11730013_a_at) / RFU EBF3 (11725865_a_at) / Fold change /veh EBF3 (11725865_a_at) / RFU CAMK2N1 (11719241_x_at) / Fold change /veh CAMK2N1 (11719241_x_at) / RFU C5orf56 (11738088_a_at) / Fold change /veh C5orf56 (11738088_a_at) / RFU OLFML3 (11715873_a_at) / Fold change /veh OLFML3 (11715873_a_at) / RFU LOC100653217 /// NTM (11731650_a_at) / Fold change /veh LOC100653217 /// NTM (11731650_a_at) / RFU MAPK11 (11762145_a_at) / Fold change /veh MAPK11 (11762145_a_at) / RFU FIZ1 (11724087_x_at) / Fold change /veh FIZ1 (11724087_x_at) / RFU OASL (11726364_x_at) / Fold change /veh OASL (11726364_x_at) / RFU SOX15 (11748057_x_at) / Fold change /veh SOX15 (11748057_x_at) / RFU CD79A (11719716_a_at) / Fold change /veh CD79A (11719716_a_at) / RFU HIST1H1D (11736915_at) / Fold change /veh HIST1H1D (11736915_at) / RFU CASKIN2 (11723855_a_at) / Fold change /veh CASKIN2 (11723855_a_at) / RFU LOC730098 (11760151_x_at) / Fold change /veh LOC730098 (11760151_x_at) / RFU OR4N2 (11742367_at) / Fold change /veh OR4N2 (11742367_at) / RFU PRRT2 (11749266_a_at) / Fold change /veh PRRT2 (11749266_a_at) / RFU SNX32 (11753110_a_at) / Fold change /veh SNX32 (11753110_a_at) / RFU CDHR5 (11726645_a_at) / Fold change /veh CDHR5 (11726645_a_at) / RFU RCAN1 (11760418_a_at) / Fold change /veh RCAN1 (11760418_a_at) / RFU FAM167A (11723789_a_at) / Fold change /veh FAM167A (11723789_a_at) / RFU FAM26E (11764081_at) / Fold change /veh FAM26E (11764081_at) / RFU ISYNA1 (11749810_s_at) / Fold change /veh ISYNA1 (11749810_s_at) / RFU ACY1 (11761880_at) / Fold change /veh ACY1 (11761880_at) / RFU 11764098_at / Fold change /veh 11764098_at / RFU SAMD14 (11745864_x_at) / Fold change /veh SAMD14 (11745864_x_at) / RFU NPB (11741838_a_at) / Fold change /veh NPB (11741838_a_at) / RFU TMPRSS6 (11731388_a_at) / Fold change /veh TMPRSS6 (11731388_a_at) / RFU KRTAP10-2 (11738614_at) / Fold change /veh KRTAP10-2 (11738614_at) / RFU ARHGAP8 /// PRR5-ARHGAP8 (11727945_x_at) / Fold change /veh ARHGAP8 /// PRR5-ARHGAP8 (11727945_x_at) / RFU KRTAP5-7 /// NADSYN1 (11734609_at) / Fold change /veh KRTAP5-7 /// NADSYN1 (11734609_at) / RFU RASL12 (11751679_a_at) / Fold change /veh RASL12 (11751679_a_at) / RFU CDKN2B (11736163_a_at) / Fold change /veh CDKN2B (11736163_a_at) / RFU PRF1 (11729649_at) / Fold change /veh PRF1 (11729649_at) / RFU, ZNF638 /// ZNF638-IT1 / Fold change vs veh, ZNF638 /// ZNF638-IT1 / RFU, PANK3 / Fold change vs veh, PANK3 / RFU, SH3YL1 / Fold change vs veh, SH3YL1 / RFU, ZEB2 / Fold change vs veh, ZEB2 / RFU, NRIP1 / Fold change vs veh, NRIP1 / RFU, PTTG1IP / Fold change vs veh, PTTG1IP / RFU, CAPN2 / Fold change vs veh, CAPN2 / RFU, MED14 / Fold change vs veh, MED14 / RFU, SNORA58 / Fold change vs veh, SNORA58 / RFU, C1orf63 / Fold change vs veh, C1orf63 / RFU, LRRFIP1 / Fold change vs veh, LRRFIP1 / RFU, NDUFAF7 / Fold change vs veh, NDUFAF7 / RFU, SLC12A2 / Fold change vs veh, SLC12A2 / RFU, IBTK / Fold change vs veh, IBTK / RFU, ESF1 / Fold change vs veh, ESF1 / Fold change vs veh, TMEM50B / RFU, TAOK1 / Fold change vs veh, TAOK1 / RFU, ACBD3 / Fold change vs veh, ACBD3 / RFU, TMA16 / Fold change vs veh, TMA16 / RFU, RWDD3 / Fold change vs veh, RWDD3 / RFU, BCAT1 / Fold change vs veh, BCAT1 / RFU, EDEM3 / Fold change vs veh, EDEM3 / RFU, TMEM33 / Fold change vs veh, TMEM33 / RFU, WDR75 / Fold change vs veh, WDR75 / RFU, AHCTF1 / Fold change vs veh, AHCTF1 / RFU, TFRC / Fold change vs veh, TFRC / RFU, ZDHHC17 / Fold change vs veh, ZDHHC17 / RFU, NOM1 / Fold change vs veh, NOM1 / RFU, ARL8B / Fold change vs veh, ARL8B / RFU, ZBTB11 / Fold change vs veh, ZBTB11 / RFU, TAMM41 / Fold change vs veh, TAMM41 / RFU, KIAA1704 /// LOC100996395 / Fold change vs veh, KIAA1704 /// LOC100996395 / RFU, ING1 / Fold change vs veh, ING1 / RFU, TRMT61B / Fold change vs veh, TRMT61B / RFU, FUBP3 / Fold change vs veh, FUBP3 / RFU, TP53 / Fold change vs veh, TP53 / RFU, TNKS2 / Fold change vs veh, TNKS2 / RFU, ZFP14 / Fold change vs veh, ZFP14 / RFU, ACTR2 / Fold change vs veh, ACTR2 / RFU, PPP3R1 / Fold change vs veh, PPP3R1 / RFU, PIK3R1 / Fold change vs veh, PIK3R1 / RFU, HNRNPA1 / Fold change vs veh, HNRNPA1 / RFU, RNF170 / Fold change vs veh, RNF170 / RFU, ZNF28 / Fold change vs veh, ZNF28 / RFU, RNGTT / Fold change vs veh, RNGTT / RFU, OGT / Fold change vs veh, OGT / RFU, BRD1 / Fold change vs veh, BRD1 / RFU, MARS / Fold change vs veh, MARS / RFU, ZNF655 / Fold change vs veh, ZNF655 / RFU, FAHD1 / Fold change vs veh, FAHD1 / RFU, BDP1 / Fold change vs veh, BDP1 / RFU, LRRCC1 / Fold change vs veh, LRRCC1 / RFU, ARID1A / Fold change vs veh, ARID1A / RFU, ZNF146 / Fold change vs veh, ZNF146 / RFU, ZNF330 / Fold change vs veh, ZNF330 / RFU, GPN3 / Fold change vs veh, GPN3 / RFU, C9orf123 / Fold change vs veh, C9orf123 / RFU, N4BP2L2 / Fold change vs veh, N4BP2L2 / RFU, ARFIP1 / Fold change vs veh, ARFIP1 / RFU, FAM179B / Fold change vs veh, FAM179B / RFU, BCL10 / Fold change vs veh, BCL10 / RFU, UHRF1BP1L / Fold change vs veh, UHRF1BP1L / RFU, BET1 / Fold change vs veh, BET1 / RFU, CNOT2 / Fold change vs veh, CNOT2 / RFU, ZNF268 / Fold change vs veh, ZNF268 / Fold change vs veh, ZNF507 / RFU, DGCR2 / Fold change vs veh, DGCR2 / RFU, WDSUB1 / Fold change vs veh, WDSUB1 / Fold change vs veh, HSP90B1 /// MIR3652 / RFU, ADSS / Fold change vs veh, ADSS / RFU, GK / Fold change vs veh, GK / RFU, ZNF148 / Fold change vs veh, ZNF148 / RFU, TAF9 / Fold change vs veh, TAF9 / RFU, SLC1A5 / Fold change vs veh, SLC1A5 / RFU, SLMO2 / Fold change vs veh, SLMO2 / RFU, ABCC4 / Fold change vs veh, ABCC4 / RFU, LOC101060439 /// RAP1B / Fold change vs veh, LOC101060439 /// RAP1B / RFU, RFX7 / Fold change vs veh, RFX7 / RFU, GTPBP10 / Fold change vs veh, GTPBP10 / RFU, CNEP1R1 / Fold change vs veh, CNEP1R1 / RFU, BIVM-ERCC5 /// ERCC5 / Fold change vs veh, BIVM-ERCC5 /// ERCC5 / RFU, ILF3 / Fold change vs veh, ILF3 / RFU 11762660_at / Fold change /veh 11762660_at / RFU VCAN (11757783_s_at) / Fold change /veh VCAN (11757783_s_at) / RFU DDX43 (11728927_at) / Fold change /veh DDX43 (11728927_at) / RFU KRT8 (11758188_x_at) / Fold change /veh KRT8 (11758188_x_at) / RFU NKD1 (11759106_at) / Fold change /veh NKD1 (11759106_at) / RFU SRD5A1 (11742802_a_at) / Fold change /veh SRD5A1 (11742802_a_at) / RFU TPSAB1 /// TPSB2 (11721975_s_at) / Fold change /veh TPSAB1 /// TPSB2 (11721975_s_at) / RFU GSTM3 (11746129_a_at) / Fold change /veh GSTM3 (11746129_a_at) / RFU IL23R (11737362_x_at) / Fold change /veh IL23R (11737362_x_at) / RFU TMEM51 (11727254_a_at) / Fold change /veh TMEM51 (11727254_a_at) / RFU PIWIL2 (11732686_x_at) / Fold change /veh PIWIL2 (11732686_x_at) / RFU ORM1 (11744905_x_at) / Fold change /veh ORM1 (11744905_x_at) / RFU CCDC152 (11743942_at) / Fold change /veh CCDC152 (11743942_at) / RFU ECM1 (11717891_a_at) / Fold change /veh ECM1 (11717891_a_at) / RFU IL23R (11748794_a_at) / Fold change /veh IL23R (11748794_a_at) / RFU TNFAIP8L3 (11732012_x_at) / Fold change /veh TNFAIP8L3 (11732012_x_at) / RFU MBOAT4 (11741988_at) / Fold change /veh MBOAT4 (11741988_at) / RFU 11764193_at / Fold change /veh 11764193_at / RFU TMEM53 (11763286_at) / Fold change /veh TMEM53 (11763286_at) / RFU MAGEB2 (11727129_at) / Fold change /veh MAGEB2 (11727129_at) / RFU TMEM200A (11744735_a_at) / Fold change /veh TMEM200A (11744735_a_at) / RFU CCDC152 (11751479_a_at) / Fold change /veh CCDC152 (11751479_a_at) / RFU FAM211A (11726209_a_at) / Fold change /veh FAM211A (11726209_a_at) / RFU RGS16 (11746705_a_at) / Fold change /veh RGS16 (11746705_a_at) / RFU VCAN (11755009_s_at) / Fold change /veh VCAN (11755009_s_at) / RFU RHOB (11743442_s_at) / Fold change /veh RHOB (11743442_s_at) / RFU RGS16 (11720943_a_at) / Fold change /veh RGS16 (11720943_a_at) / RFU RGS16 (11720944_at) / Fold change /veh RGS16 (11720944_at) / RFU, VPS4B / Fold change vs veh, VPS4B / RFU, CREB1 / Fold change vs veh, CREB1 / RFU, DNAJC13 / Fold change vs veh, DNAJC13 / RFU, GNAQ / Fold change vs veh, GNAQ / RFU, CDK5R1 / Fold change vs veh, CDK5R1 / RFU, ZRANB3 / Fold change vs veh, ZRANB3 / RFU, CUL4A / Fold change vs veh, CUL4A / RFU, CCNY / Fold change vs veh, CCNY / RFU, UFL1 / Fold change vs veh, UFL1 / RFU, COG3 / Fold change vs veh, COG3 / RFU, DIAPH2 / Fold change vs veh, DIAPH2 / RFU, SKA2 / Fold change vs veh, SKA2 / RFU, AFF3 / Fold change vs veh, AFF3 / RFU, LMF1 / Fold change vs veh, LMF1 / RFU, IPO11 / Fold change vs veh, IPO11 / RFU, DFFB / Fold change vs veh, DFFB / RFU, FOXP1 / Fold change vs veh, FOXP1 / RFU, CARD8 / Fold change vs veh, CARD8 / RFU, STRN3 / Fold change vs veh, STRN3 / RFU, ADK / Fold change vs veh, ADK / RFU, RASSF2 / Fold change vs veh, RASSF2 / RFU, WIPF1 / Fold change vs veh, WIPF1 / RFU, LARP1B / Fold change vs veh, LARP1B / RFU, RASA1 / Fold change vs veh, RASA1 / RFU, RB1 / Fold change vs veh, RB1 / RFU, PPFIA1 / Fold change vs veh, PPFIA1 / RFU, MAT2A / Fold change vs veh, MAT2A / RFU, CCT5 / Fold change vs veh, CCT5 / RFU, WDR92 / Fold change vs veh, WDR92 / RFU, CUX1 / Fold change vs veh, CUX1 / RFU, TTC7A / Fold change vs veh, TTC7A / RFU, TMEM135 / Fold change vs veh, TMEM135 / RFU, DEPTOR / Fold change vs veh, DEPTOR / RFU, CPM / Fold change vs veh, CPM / RFU, DNAJB6 / Fold change vs veh, DNAJB6 / RFU, CACNA2D3 / Fold change vs veh, CACNA2D3 / RFU, DTX4 / Fold change vs veh, DTX4 / RFU, TFCP2 / Fold change vs veh, TFCP2 / RFU, GMCL1 /// GMCL1P1 / Fold change vs veh, GMCL1 /// GMCL1P1 / RFU, AEBP2 / Fold change vs veh, AEBP2 / RFU, SNHG1 /// SNORD22 /// SNORD25 /// SNORD26 /// SNORD27 /// SNORD28 /// SNORD29 /// SNORD31 / Fold change vs veh, SNHG1 /// SNORD22 /// SNORD25 /// SNORD26 /// SNORD27 /// SNORD28 /// SNORD29 /// SNORD31 / Fold change (Aza/veh), C12orf56 (ProbeSet 11735607_a_at) / Fold change (ACY-1035/veh), C12orf56 (ProbeSet 11735607_a_at) / Fold change (Aza/veh), FGFR1OP (ProbeSet 11751329_s_at) / Fold change (ACY-1035/veh), FGFR1OP (ProbeSet 11751329_s_at) / Fold change (Aza/veh), VPS36 (ProbeSet 11739960_a_at) / Fold change (ACY-1035/veh), VPS36 (ProbeSet 11739960_a_at) / RFU SYPL1 (11715823_x_at) / Fold change /veh SYPL1 (11715823_x_at) / RFU IGFBP7 (11715501_s_at) / Fold change /veh IGFBP7 (11715501_s_at) / RFU REEP3 (11722064_at) / Fold change /veh REEP3 (11722064_at) / RFU IGLL1 (11728026_x_at) / Fold change /veh IGLL1 (11728026_x_at): dose or concentration left out as unconfirmed. Conditions: ProbeSet 11732154_at; LIST B.

Molecules are shown by their SMILES.

Consider `Nc1ccc(-c2cccs2)cc1NC(=O)c1ccc2c(c1)cc(C1CC1)n2CCN1CCOCC1` [ACY-1035], for which the “RFU, OGT” value turned out to be 340.88 RFU.
